From patent US9351974B2, “Substituted pteridinones for the treatment of cancer” (OSI Pharmaceuticals, LLC, priority 2011, dated 2016)

molecular target: T1, His-tagged full-length RSK2 (RPS6KA3) (Homo sapiens, UniProt P51812); experiment: RSK2 Omnia Assay for compound IC50 determination; type: biochemical; details: ATP 15 μM, n=2, read-out: Mean RSK2 Biochem IC50
T1 construct: His-tagged full-length RSK2 (RPS6KA3, Invitrogen PV3323); His; purchased Invitrogen PV3323
Summary of the method: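 Initial-rate slopes from continuous kinetic reads were fitted to a four-parameter equation for IC50 (n=2). Ki was then derived by Cheng-Prusoff assuming ATP-competitive inhibition. Reactions contained 15 μM ATP (Km 16.3 μM), 5 μM Omnia ST Peptide 6, and […] in 50 mM HEPES pH 7.5, 10 mM MgCl2, 1 mM DTT, 1% DMSO. Compounds spanned 11 threefold steps, […] final.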

T1 sequence (P51812 whole entry): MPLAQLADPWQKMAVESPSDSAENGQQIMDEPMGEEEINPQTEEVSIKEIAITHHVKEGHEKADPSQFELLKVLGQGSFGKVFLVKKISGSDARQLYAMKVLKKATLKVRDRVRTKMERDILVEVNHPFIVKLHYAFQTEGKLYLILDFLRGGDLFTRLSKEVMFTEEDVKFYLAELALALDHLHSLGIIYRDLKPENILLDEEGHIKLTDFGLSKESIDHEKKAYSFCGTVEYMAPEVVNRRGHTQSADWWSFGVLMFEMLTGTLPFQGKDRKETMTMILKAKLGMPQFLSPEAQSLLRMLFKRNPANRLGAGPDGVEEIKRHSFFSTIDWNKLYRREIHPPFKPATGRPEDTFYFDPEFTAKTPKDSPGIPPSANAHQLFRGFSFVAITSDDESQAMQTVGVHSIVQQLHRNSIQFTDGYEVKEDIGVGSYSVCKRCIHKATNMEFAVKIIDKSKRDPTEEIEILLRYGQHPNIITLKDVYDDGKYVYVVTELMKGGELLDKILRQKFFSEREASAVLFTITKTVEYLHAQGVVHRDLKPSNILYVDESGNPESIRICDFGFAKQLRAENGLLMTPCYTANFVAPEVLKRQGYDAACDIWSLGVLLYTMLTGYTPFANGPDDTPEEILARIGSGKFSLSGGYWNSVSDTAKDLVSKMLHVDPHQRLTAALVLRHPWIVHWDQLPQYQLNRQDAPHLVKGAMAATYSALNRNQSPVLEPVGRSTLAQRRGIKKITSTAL

Structure (SMILES)	IC50
CC(C)Oc1ccc(N2C(=O)[C@@H](C)N([C@H]3CC[C@H](C)CC3)c3nc(Nc4ccc5[nH]c(=O)oc5c4)ncc32)cc1C#N [compound 249, 5-[(7R)-7-methyl-8-(trans-4-methylcyclohexyl)-6-oxo-2-[(2-oxo-2,3-dihydro-1,3-benzoxazol-6-yl)amino]-7,8-dihydropteridin-5(6H)-yl]-2-(propan-2-yloxy)benzonitrile]	≤ 0.1 µM
CC(C)CCN1c2nc(Nc3cccc(C(=O)O)c3)ncc2N(c2ccccc2)C(=O)C1C (stereo not shown) [Example 15, 3-{[7-methyl-8-(3-methylbutyl)-6-oxo-5-phenyl-5,6,7,8-tetrahydropteridin-2-yl]amino}benzoic acid]	> 1 µM
COc1ccc(N2C(=O)[C@@H](C)N(C3CCC(C)(C)CC3)c3nc(Nc4cc(F)c5[nH]ncc5c4)ncc32)cc1OC [Example 210, (7R)-5-(3,4-dimethoxyphenyl)-8-(4,4-dimethylcyclohexyl)-2-[(7-fluoro-1H-indazol-5-yl)amino]-7-methyl-7,8-dihydropteridin-6(5H)-one]	≤ 0.1 µM
C[C@@H]1C(=O)N(c2cccc(C#N)c2)c2cnc(Nc3cc(F)c4[nH]ncc4c3)nc2N1C1CCC(F)(F)CC1 [Example 260, 3-[(7R)-8-(4,4-difluorocyclohexyl)-2-[(7-fluoro-1H-indazol-5-yl)amino]-7-methyl-6-oxo-7,8-dihydropteridin-5(6H)-yl]benzonitrile]	≤ 0.1 µM
COc1ccc(N2C(=O)[C@@H](C)N(C3CCCCC3)c3nc(NCc4cn[nH]c4)ncc32)cc1OC [compound 163]	> 1 µM
C[C@@H]1C(=O)N(c2cccc(C#N)c2)c2cnc(Nc3ccc4[nH]ncc4n3)nc2N1C1CCCCC1 [compound 167, 3-[(7R)-8-cyclohexyl-7-methyl-6-oxo-2-(1H-pyrazolo[4,3-b]pyridin-5-ylamino)-7,8-dihydropteridin-5(6H)-yl]benzonitrile]	0.1 to 1 µM
COc1ccc(N2C(=O)[C@@H](C)N(C3CCOCC3)c3nc(Nc4cc(F)c5[nH]c(=O)oc5c4)ncc32)cc1C#N [compound 203, 5-[(7R)-2-[(4-fluoro-2-oxo-2,3-dihydro-1,3-benzoxazol-6-yl)amino]-7-methyl-6-oxo-8-(tetrahydro-2H-pyran-4-yl)-7,8-dihydropteridin-5(6H)-yl]-2-methoxybenzonitrile]	≤ 0.1 µM
C[C@@H]1C(=O)N(c2cccc(C#N)c2)c2cnc(Nc3ccccc3)nc2N1C1CCCCC1 [compound 156, 3-[(7R)-8-cyclohexyl-7-methyl-6-oxo-2-(phenylamino)-7,8-dihydropteridin-5(6H)-yl]benzonitrile]	0.1 to 1 µM
COc1ccc(N2C(=O)[C@@H](C)N(C3CCCCC3)c3nc(Nc4cnc5[nH]ncc5c4)ncc32)cc1C#N [compound 164, 5-[(7R)-8-cyclohexyl-7-methyl-6-oxo-2-(1H-pyrazolo[3,4-b]pyridin-5-ylamino)-7,8-dihydropteridin-5(6H)-yl]-2-methoxybenzonitrile]	≤ 0.1 µM
Cc1ccc(N2C(=O)[C@@H](C)N(C3CCCCC3)c3nc(Nc4ccc5[nH]ncc5c4)ncc32)cc1C#N [Example 53, 5-[(7R)-8-cyclohexyl-2-(1H-indazol-5-ylamino)-7-methyl-6-oxo-7,8-dihydropteridin-5(6H)-yl]-2-methylbenzonitrile]	≤ 0.1 µM
C[C@@H]1C(=O)N(c2cccc(C#N)c2)c2cnc(Nc3cc(F)c4[nH]ncc4c3)nc2N1C1CCC(C)(C)CC1 [Example 209, 3-[(7R)-8-(4,4-dimethylcyclohexyl)-2-[(7-fluoro-1H-indazol-5-yl)amino]-7-methyl-6-oxo-7,8-dihydropteridin-5(6H)-yl]benzonitrile]	≤ 0.1 µM
C[C@@H]1C(=O)N(c2ccc3c(c2)OCO3)c2cnc(Nc3ccc4[nH]ncc4c3)nc2N1C1CCCCC1 [Example 39, (7R)-5-(1,3-benzodioxol-5-yl)-8-cyclohexyl-2-(1H-indazol-5-ylamino)-7-methyl-7,8-dihydropteridin-6(5H)-one]	≤ 0.1 µM
COc1ccc(N2C(=O)[C@@H](C)N([C@H]3CC[C@H](OC)CC3)c3nc(Nc4cc(F)c5[nH]ncc5c4)ncc32)cc1OC [compound 225, (7R)-5-(3,4-dimethoxyphenyl)-2-[(7-fluoro-1H-indazol-5-yl)amino]-8-(trans-4-methoxycyclohexyl)-7-methyl-7,8-dihydropteridin-6(5H)-one]	≤ 0.1 µM

More lines, now with the values ahead:

IC50	Structure (SMILES)
≤ 0.1 µM	CNS(=O)(=O)c1cccc(N2C(=O)[C@@H](C)N(C3CCCCC3)c3nc(Nc4ccc5[nH]ncc5c4)ncc32)c1 [Example 42, 3-[(7R)-8-cyclohexyl-2-(1H-indazol-5-ylamino)-7-methyl-6-oxo-7,8-dihydropteridin-5(6H)-yl]-N-methylbenzenesulfonamide]
≤ 0.1 µM	[2H]C1([2H])C(N2c3nc(Nc4cc(F)c5[nH]ncc5c4)ncc3N(c3ccc(OC)c(OC)c3)C(=O)[C@H]2C)C([2H])([2H])C([2H])([2H])C([2H])([2H])C1([2H])[2H] [compound 300, (7R)-8-[(2,2,3,3,4,4,5,5,6,6-2H10)cyclohexyl]-5-(3,4-dimethoxyphenyl)-2-[(7-fluoro-1H-indazol-5-yl)amino]-7-methyl-7,8-dihydropteridin-6(5H)-one]
≤ 0.1 µM	C[C@@H]1C(=O)N(c2cccc(C#N)c2)c2cnc(Nc3ccc4[nH]ncc4c3)nc2N1CC1CCCC1 [Example 81, 3-[(7R)-8-(cyclopentylmethyl)-2-(1H-indazol-5-ylamino)-7-methyl-6-oxo-7,8-dihydropteridin-5(6H)-yl]benzonitrile]
≤ 0.1 µM	CC[C@@H]1C(=O)N(c2cccc(F)c2)c2cnc(Nc3cc(F)c4[nH]ncc4c3)nc2N1C1CCCCC1 [compound 290, (7R)-8-cyclohexyl-7-ethyl-2-[(7-fluoro-1H-indazol-5-yl)amino]-5-(3-fluorophenyl)-7,8-dihydropteridin-6(5H)-one]
≤ 0.1 µM	CC[C@@H]1C(=O)N(c2cccc(C#N)c2)c2cnc(Nc3cc(F)c4[nH]ncc4c3)nc2N1C1CCCC1 [Example 217, 3-[(7R)-8-cyclopentyl-7-ethyl-2-[(7-fluoro-1H-indazol-5-yl)amino]-6-oxo-7,8-dihydropteridin-5(6H)-yl]benzonitrile]
≤ 0.1 µM	CC(C)CCN1c2nc(Nc3cc(F)c(O)c(F)c3)ncc2N(c2cccc(C#N)c2)C(=O)[C@H]1C [Example 89, 3-[(7R)-2-[(3,5-difluoro-4-hydroxyphenyl)amino]-7-methyl-8-(3-methylbutyl)-6-oxo-7,8-dihydropteridin-5(6H)-yl]benzonitrile]
≤ 0.1 µM	CC(C)Oc1ccc(N2C(=O)[C@@H](C)N(C3CCOCC3)c3nc(Nc4cnc5[nH]ncc5c4)ncc32)cc1C#N [compound 202, 5-[(7R)-7-methyl-6-oxo-2-(1H-pyrazolo[3,4-b]pyridin-5-ylamino)-8-(tetrahydro-2H-pyran-4-yl)-7,8-dihydropteridin-5(6H)-yl]-2-(propan-2-yloxy)benzonitrile]
≤ 0.1 µM	C[C@@H]1C(=O)N(c2cccnc2)c2cnc(Nc3cc(F)c4[nH]ncc4c3)nc2N1[C@H]1CC[C@H](C(F)(F)F)CC1 [compound 256]
≤ 0.1 µM	C[C@@H]1C(=O)N(c2cccnc2)c2cnc(Nc3cc(F)c4[nH]ncc4c3)nc2N1C1CCOCC1 [compound 191, (7R)-2-[(7-fluoro-1H-indazol-5-yl)amino]-7-methyl-5-(pyridin-3-yl)-8-(tetrahydro-2H-pyran-4-yl)-7,8-dihydropteridin-6(5H)-one]
